Consider seven compounds from US5100907A, “Hydantoin esters” (Lonza, Inc., priority 1990, dated 1992).

Data set [1] is described as follows: Emulsion stability tests. The data set is classed as physicochemical. The conditions noted are these: for Classification of Emulsion: 2% ester, 7% myristyl propionate, 91% water. As to the method: Emulsion stability tests were performed on the esters (I), and for comparison on the precursor esters (Ia), to determine the extent to which each stabilized a standardized solution of water and an oil, using a common procedure consisting of homogenizing a mixture containing the test ester (2%), myristyl propionate (7%), and water (91%). While two emulsifiers are normally used to prepare a cosmetic formulation, e.g. one with a high HLB and the other with a low HLB, the test method herein using only one emulsifier, i.e. the test ester, is fully indicative of the emulsifying attributes of these esters.
The tests were performed with emulsions (500 g), prepared by combining the test ester (10.0 g), myristyl propionate (35 g), and distilled water (455 g) in a container and homogenizing the contents for one minute, via a Kika-Werk Ultra-Turrax S D-45 homogenizer. The emulsions were poured into a one pound flint jar, capped, and periodically examined over a 55 day period.

The nature of data set [2]: Dispersion stability tests. The format is physicochemical. As to the method:
The dispersion stability tests were performed on the esters (I) to determine the extent each was able to disperse itself in an aqueous medium.
The dispersions were prepared by homogenizing a mixture of the test ester and water, after which repeated examination of the sample was effected for a period of 55 days. This test method is fully indicative of the dispersibility of these esters (I).
The dispersion tests were performed with the esters at 0.5% and 5.0% active levels in water, prepared by combining the test ester with distilled water, and homogenizing the mixture for one to three minutes, via a Kika-Werk Ultra-Turrax S D-45 homogenizer. The dispersions were poured into an eight ounce flint jar, capped, and periodically examined over a 55 day period.

Data set [3] in a line: HLB determination (weighted average method). The data set is classed as physicochemical. The source says: Hydrophilic-Lipophilic Balance or HLB is a means of associating the hydrophilic and lipophilic characteristics between two surfactants. A "weighted average" method was used to determine the HLB of the esters (I), and by comparison of the precursor ester (Ia), in which two emulsifiers of known HLB values along with the test ester were incorporated in a mixture of mineral oil and water. Evaluation and HLB determination of each of a series of prepared emulsion samples were effected by visual inspection.
The HLB of the mixture "m" is calculated from the sum of the HLB contributions of each surfactant, "a", "b", "c", per Equation 2 which describes a system of oil, water, and three surfactants.
Given that [HLB]m, [HLB]a, and [HLB]b, are known, and the ideal amount of "a", "b", and "c" to prepare a perfect emulsion has been determined, then by rearrangement of Eq. 2, the HLB of "c" can be calculated by Equation 3.
To obtain the HLB of the test ester as surfactant "c", a series of formulations was prepared in which the known surfactant sorbitan monostearate (SMS) as "a" and the known surfactant POE 20 sorbitan monostearate (POE 20 SMS) as "b" were varied in amount (wt. %) relative to each other at a constant amount (1 wt. %) of "c", until an optimum emulsion was obtained. Different combinations of "a" and "b" were used to vary the HLB of "c", for emulsifying a 40:56 (wt. %) mixture of paraffin oil and distilled water (totaling 96 wt. %).
To prepare the emulsions, surfactants "a", "b", and "c", and the paraffin oil were combined in a 150 ml beaker and heated slowly with agitation to 70°-80° C. The value of "X" in each formulation was predetermined by rearranging Eq. 3 to solve for X, and then inserting into the equation various [HLB]c values for the test ester (i.e., 2, 3, 4, 5, 6 . . . ). The [HLB]c values chosen reflected a range that would likely contain the actual HLB of the test ester. Hot distilled water (70°-80° C.) was then slowly added with agitation. The total weight of all these reagents was 100 grams. The resulting emulsion was allowed to cool, with continued agitation, until the temperature dropped below 30° C.
A series of emulsions for each test was prepared, one at a time, and then examined as a set. Each sample within the series was evaluated and graded according to the quality of the emulsion by visual examination of droplet size.

Data set [4] has as its system Aspergillus niger. The data set is described as follows: Antimicrobial study against Aspergillus niger (mold). The format is cell-based. The following applies: methylolated C8/10 10,800 ppm, methylolated lauric 11,400 ppm, DMDMH 3,000 ppm, others 14,700 ppm. As to the method:
(§1) The antimicrobial properties of typical esters (I) and (Ia) were tested by minimum inhibitory concentration (MIC) tests, along with certain known substances, against […] strains of organisms: a mold, Aspergillus niger; a gram-positive bacteria, Staphylococcus aureus; and two gram-negative bacteria, Escherichia coli and Pseudomonas aeruginosa. […] These tests were used to determine any effect on biocidal activity of the varying chain length of the ester.
(§2) The known substances, on which identical tests were also performed, included the biocide, dimethyloldimethylhydantoin or DMDMH (iv), and a series of three surfactants, i.e., the three common emulsifiers, sodium lauryl sulfate (SLS); ethylene glycol distearate (EGDS), in the form of the commercial product PEGOSPERSE 50 DS (Lonza Inc.); and polyoxyethylene 20 sorbitan monoleate (POE 20 SMO), in the form of the commercial product GLYCOSPERSE 0 20 (Lonza Inc.).
(§3) The tests entailed contaminating a preexisting micro-colony with a known quantity (ppm, concentration) of test material. Each colony was then examined periodically over a one week period. […] A test was deemed non-efficacious when there was no decrease in colony size. In an effort to avoid any possible solvent effect, the micro-study was conducted in a totally aqueous solvent system without use of any other solvent.

Data set [5] deals with Staphylococcus aureus. The data set is described as follows: Antimicrobial study against Staphylococcus aureus (gram-positive bacteria). The format is cell-based. The conditions noted are these: methylolated C8/10 10,800 ppm, methylolated lauric 11,400 ppm, DMDMH 3,000 ppm, others 14,700 ppm. As to the method: as §1, §2, §3
Data set [6] deals with Escherichia coli. As to the kind of experiment: Antimicrobial study against Escherichia coli (gram-negative bacteria). The data set is classed as cell-based. The following applies: methylolated C8/10 10,800 ppm, methylolated lauric 11,400 ppm, DMDMH 3,000 ppm, others 14,700 ppm. As to the method: as §1, §2, §3
For data set [7], the system named is Pseudomonas aeruginosa. As to the kind of experiment: Antimicrobial study against Pseudomonas aeruginosa (gram-negative bacteria). The format is cell-based. The following applies: methylolated C8/10 10,800 ppm, methylolated lauric 11,400 ppm, DMDMH 3,000 ppm, others 14,700 ppm. As for the experimental part:
as §1, §2, §3

For “2-(3-hydroxymethyl-5,5-dimethyl-1,3-diazacyclopentane-2,4-dion-1-yl)-ethylester of coconut fatty acid [Coconut Methylolated Ester]”, in data set [1], the “ability to stabilize emulsions” value is recorded as “the best emulsifiers tested” and the “duration of stabilized emulsions” value is given as “more than 22 days”. Moreover, the “stability of dispersions in water” value in data set [2] is on record as “stable for weeks”.
For the compound “2-(5,5-dimethyl-1,3-diazacyclopentane-2,4-dion-1-yl)-ethyl ester of isostearic acid [Isostearic Non-Methylolated Ester]”, in data set [3], the “Average HLB” value turned out to be 7.0. Moreover, the “HLB Range” value in data set [3] is recorded as 6-7. Besides, the “Classification of Emulsion” value in data set [1] (7 Days after preparation), in data set [1] (22 Days after preparation) and in data set [1] (55 Days after preparation) was 2-Phase throughout.
Turning to `CC(=O)OCCN1C(=O)NC(=O)C1(C)C` [Acetic Non-Methylolated Ester, 2-(5,5-dimethyl-1,3-diazacyclopentane-2,4-dion-1-yl)-ethyl ester of acetic acid], the “Average HLB” value in data set [3] is 7.0. The “HLB Range” value in data set [3] is 6-8. In addition, the “Classification of Emulsion” value in data set [1] (2 Hours after preparation), in data set [1] (7 Days after preparation), in data set [1] (22 Days after preparation) and in data set [1] (55 Days after preparation) was 2-Phase each time.
Regarding `CCCCCCCCCCCC(=O)OCCN1C(=O)NC(=O)C1(C)C` [Non-Methylolated Lauric Ester, 2-(5,5-dimethyl-1,3-diazacyclopentane-2,4-dion-1-yl)-ethyl ester of lauric acid], in data set [3], the “Average HLB” value came out at 6.5. Also, in data set [3], the “HLB Range” value is 5-7. For the same compound, the “Colony Count” value was 300 × 1,000 in data set [4] (Day 0); 200 × 1,000 in data set [4] (Day 1); 200 × 1,000 in data set [4] (Day 2); 220 × 1,000 in data set [4] (Day 3); 150 × 1,000 in data set [4] (Day 7); “TNC” in data set [5] (Day 0). Further, the “Colony Count” value is reported as 500 × 1,000 in data set [5] (Day 1); 3,000 × 1,000 in data set [5] (Day 2); “TNC” in data set [5] (Day 3); 30 × 1,000 in data set [5] (Day 7); “TNC” in data set [6] (Day 0); “TNC” in data set [6] (Day 1). Also, the “Colony Count” value in data set [6] (Day 2), in data set [6] (Day 3), in data set [6] (Day 7), in data set [7] (Day 0), in data set [7] (Day 1) and in data set [7] (Day 2) was “TNC” in each case. Moreover, the results for the “Colony Count” value in data set [7] (Day 3) and in data set [7] (Day 7) were 250 × 1,000 and “TNC”, respectively.
Consider `CCCCCCCC/C=C\CCCCCCCC(=O)OCCN1C(=O)NC(=O)C1(C)C` [Oleic Non-Methylolated Ester, 2-(5,5-dimethyl-1,3-diazacyclopentane-2,4-dion-1-yl)-ethyl ester of oleic acid], for which the “Average HLB” value in data set [3] stood at 8.5. Also, the “HLB Range” value in data set [3] was 8-9. For the same compound, the “Classification of Emulsion” value in data set [1] (7 Days after preparation), in data set [1] (22 Days after preparation) and in data set [1] (55 Days after preparation) was 2-Phase throughout.
Take `CCCCCCCCCCCCCCCCCC(=O)OCCN1C(=O)NC(=O)C1(C)C` [Stearic Non-Methylolated Ester, 2-(5,5-dimethyl-1,3-diazacyclopentane-2,4-dion-1-yl)-ethyl ester of stearic acid]: in data set [3], the “Average HLB” value is recorded as 1.5. For the same compound, the “HLB Range” value in data set [3] was 1-3. Besides, the “Classification of Emulsion” value in data set [1] (2 Hours after preparation), in data set [1] (7 Days after preparation), in data set [1] (22 Days after preparation) and in data set [1] (55 Days after preparation) was 2-Phase throughout.
Turning to “mixture of the 2-(3-hydroxymethyl-5,5-dimethyl-1,3-diazacyclopentane-2,4-dion-1-yl)-ethylesters of caprylic acid and capric acid [Methylolated C8/10 Ester]”, in data set [1], the “ability to stabilize emulsions” value is listed as “generally unable to stabilize an emulsion for more than two hours”.
